Test results published in US20230257393A1, “MACROMOLECULE-SUPPORTED THIENOAZEPINE COMPOUNDS, AND USES THEREOF” (BOLT BIOTHERAPEUTICS, INC., priority 2020, published 2023).
Read-outs that look alike come from different tables or passages of the source.

What was measured:
human TLR7 = target: T1, human TLR7 (Homo sapiens, UniProt Q9NYK1); assay: HEK Reporter Assay, HEK293 NFKB reporter cells expressing human TLR7; format: cell-based; settings: read-out: HEK293 hTLR7 EC50
T1 construct: host or cells: HEK293 reporter cells
T1 sequence (Q9NYK1 27-1049): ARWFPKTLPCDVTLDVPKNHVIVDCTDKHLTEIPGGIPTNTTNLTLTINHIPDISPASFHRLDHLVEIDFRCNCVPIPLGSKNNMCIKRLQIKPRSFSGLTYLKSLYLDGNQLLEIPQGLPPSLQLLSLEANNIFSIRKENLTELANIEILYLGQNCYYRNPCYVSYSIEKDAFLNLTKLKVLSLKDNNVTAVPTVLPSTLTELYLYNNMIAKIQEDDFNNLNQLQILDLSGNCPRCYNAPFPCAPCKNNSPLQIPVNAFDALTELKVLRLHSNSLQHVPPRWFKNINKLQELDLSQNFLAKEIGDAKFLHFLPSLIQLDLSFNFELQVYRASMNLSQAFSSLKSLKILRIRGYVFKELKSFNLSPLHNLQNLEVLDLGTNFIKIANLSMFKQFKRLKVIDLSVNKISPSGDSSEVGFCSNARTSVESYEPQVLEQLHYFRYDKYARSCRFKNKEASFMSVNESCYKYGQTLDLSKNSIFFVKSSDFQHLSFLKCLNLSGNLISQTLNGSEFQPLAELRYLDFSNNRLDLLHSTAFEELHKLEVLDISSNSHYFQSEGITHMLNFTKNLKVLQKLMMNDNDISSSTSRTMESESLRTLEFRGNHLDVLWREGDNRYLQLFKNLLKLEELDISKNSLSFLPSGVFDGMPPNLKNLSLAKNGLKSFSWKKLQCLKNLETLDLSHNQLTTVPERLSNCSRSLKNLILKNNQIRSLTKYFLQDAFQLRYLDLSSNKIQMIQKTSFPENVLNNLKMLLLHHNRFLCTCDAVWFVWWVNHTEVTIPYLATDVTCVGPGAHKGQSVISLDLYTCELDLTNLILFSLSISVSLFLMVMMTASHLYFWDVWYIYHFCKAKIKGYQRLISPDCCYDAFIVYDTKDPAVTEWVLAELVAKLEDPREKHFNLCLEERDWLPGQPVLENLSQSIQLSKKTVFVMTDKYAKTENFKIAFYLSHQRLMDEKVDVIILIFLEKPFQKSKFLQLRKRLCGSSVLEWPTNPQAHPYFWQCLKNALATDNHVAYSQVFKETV
Procedure: (§1) Each compound was synthesized, purified, and characterized by mass spectrometry and shown to have the mass indicated. Additional experimental procedures are found in the Examples. Activity against HEK293 NFKB reporter cells expressing human TLR7 or human TLR8 was measured according to Example 202.
(§2) HEK293 reporter cells expressing human TLR7 or human TLR8 were purchased from Invivogen and vendor protocols were followed for cellular propagation and experimentation. Briefly, cells were grown to 80-85% confluence at 5% CO2 in DMEM supplemented with 10% FBS, Zeocin, and Blasticidin. Cells were then seeded in 96-well flat plates at 4×10^4 cells/well with substrate containing HEK detection medium and immunostimulatory molecules. Activity was measured using a plate reader at 620-655 nm wavelength.

human TLR8 = target: T2, human TLR8 (Homo sapiens, UniProt Q9NR97); assay: HEK Reporter Assay, HEK293 NFKB reporter cells expressing human TLR8; format: cell-based; settings: read-out: HEK293 hTLR8 EC50
T2 construct: host or cells: HEK293 reporter cells
T2 sequence (Q9NR97 27-1041): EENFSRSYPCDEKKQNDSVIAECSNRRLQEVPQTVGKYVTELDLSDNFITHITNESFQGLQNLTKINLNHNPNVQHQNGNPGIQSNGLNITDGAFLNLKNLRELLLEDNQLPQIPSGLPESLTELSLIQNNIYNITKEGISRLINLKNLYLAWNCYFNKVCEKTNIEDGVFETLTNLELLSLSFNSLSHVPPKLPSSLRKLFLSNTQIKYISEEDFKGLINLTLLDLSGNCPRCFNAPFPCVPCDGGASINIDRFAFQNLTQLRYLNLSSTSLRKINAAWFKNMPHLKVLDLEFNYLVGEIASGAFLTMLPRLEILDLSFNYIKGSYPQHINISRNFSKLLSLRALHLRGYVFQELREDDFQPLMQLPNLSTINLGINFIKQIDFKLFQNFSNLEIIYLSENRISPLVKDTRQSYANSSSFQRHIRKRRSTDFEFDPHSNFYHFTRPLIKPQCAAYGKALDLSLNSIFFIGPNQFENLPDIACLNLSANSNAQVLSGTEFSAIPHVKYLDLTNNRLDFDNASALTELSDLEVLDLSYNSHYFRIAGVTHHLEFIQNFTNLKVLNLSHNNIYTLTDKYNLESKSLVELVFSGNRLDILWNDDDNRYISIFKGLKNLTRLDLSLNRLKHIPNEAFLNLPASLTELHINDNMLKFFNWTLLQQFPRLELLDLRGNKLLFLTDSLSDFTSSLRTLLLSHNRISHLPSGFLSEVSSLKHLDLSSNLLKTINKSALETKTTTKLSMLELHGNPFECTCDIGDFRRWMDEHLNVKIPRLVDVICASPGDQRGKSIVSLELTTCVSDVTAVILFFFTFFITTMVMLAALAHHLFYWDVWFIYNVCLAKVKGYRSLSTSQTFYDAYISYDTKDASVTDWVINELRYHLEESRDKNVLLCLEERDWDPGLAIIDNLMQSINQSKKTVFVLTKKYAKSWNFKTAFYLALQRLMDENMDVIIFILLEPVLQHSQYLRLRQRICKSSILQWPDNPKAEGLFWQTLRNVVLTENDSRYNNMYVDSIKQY
Procedure: as §1, §2

Compound | EC50 (human TLR7; Table 1a) [µM] | EC50 (human TLR8; Table 1a) [µM] | also measured
CCCN(Cc1ccc(CNC(=O)OC(C)(C)C)cc1)C(=O)C1=Cc2sccc2N=C(N)C1 [TAZ-29, tert-butyl (4-((5-amino-N-propyl-6H-thieno[3,2-b]azepine-7-carboxamido)methyl)benzyl)carbamate] | > 9 | > 9 | 
CCCN(CCCc1ccc(CN2CCNCC2)cc1)C(=O)C1=Cc2sccc2N=C(N)C1 [TAZ-37] |  |  | EC50 (human TLR7; Table 1b): > 9 µM; EC50 (human TLR8; Table 1b): 2.94 µM
CCCN(OCC)C(=O)C1=Cc2sc(CN3C[C@H]4C[C@@H]3CN4)cc2N=C(N)C1 [TAZ-235] |  |  | EC50 (human TLR7; Table 1c): 4.57 µM; EC50 (human TLR8; Table 1c): 3.05 µM
CCCN(OCC)C(=O)C1=Cc2sc(C#CC3CNC3)cc2N=C(N)C1 [TAZ-193] |  |  | EC50 (human TLR7; Table 1c): 3.36 µM; EC50 (human TLR8; Table 1c): 1.52 µM
CCCN(CCCN)C(=O)C1=Cc2sccc2N=C(N)C1 [TAZ-11, 5-amino-N-(3-aminopropyl)-N-propyl-6H-thieno[3,2-b]azepine-7-carboxamide] | > 9 | > 9 | 
CCCN(CCC)C(=O)C1=Cc2sc(CC(=O)NCCN)cc2N=C(N)C1 [TAZ-120] |  |  | EC50 (human TLR7; Table 1c): ≥ 9 µM; EC50 (human TLR8; Table 1c): ≥ 9 µM
CCCN(CCCNC(=O)OC1CCC1)C(=O)C1=Cc2sc(C#CC3CNC3)cc2N=C(N)C1 [TAZ-192] |  |  | EC50 (human TLR7; Table 1c): 0.824 µM; EC50 (human TLR8; Table 1c): 3.48 µM
CCCN(OCC)C(=O)C1=Cc2sc(COCCCN)cc2N=C(N)C1 [TAZ-73] |  |  | EC50 (human TLR7; Table 1b): > 9 µM; EC50 (human TLR8; Table 1b): 2.98 µM

Continued, in another order:

EC50 (human TLR7; Table 1a) [µM] | EC50 (human TLR8; Table 1a) [µM] | Compound | also measured
> 9 | > 9 | CCCN(CCCNC(=O)OC(C)(C)C)C(=O)C1=Cc2sc(Br)cc2N=C(N)C1 [TAZ-9, tert-butyl N-[3-[(5-amino-2-bromo-6H-thieno[3,2-b]azepine-7-carbonyl)-propyl-amino]propyl]carbamate] | 
> 9 | > 9 | CCCN(CCC)C(=O)C1=Cc2sc(Br)cc2N=C(N)C1 [TAZ-1, 5-amino-2-bromo-N,N-dipropyl-6H-thieno[3,2-b]azepine-7-carboxamide] | 
> 9 | > 9 | CCCN(CCC)C(=O)C1=Cc2sc(Cc3ccccc3)cc2N=C(N)C1 [TAZ-26, 5-amino-2-benzyl-N,N-dipropyl-6H-thieno[3,2-b] azepine-7-carboxamide] | 
> 9 | > 9 | CCCN(CCC)C(=O)C1=Cc2sc(-c3cccc(S(=O)(=O)N4CC(CO)C4)c3)cc2N=C(N)C1 [TAZ-4, 5-amino-2-[3-[3-(hydroxymethyl)azetidin-1-yl]sulfonylphenyl]-N,N-dipropyl-6H-thieno[3,2-b]azepine-7-carboxamide] | 
> 9 | > 9 | CCCN(CCC)C(=O)C1=Cc2sc(C(=O)Nc3cncnc3)cc2N=C(N)C1 [TAZ-27, 5-amino-N7,N7-dipropyl-N2-pyrimidin-5-yl-6H-thieno[3,2-b]azepine-2,7-dicarboxamide] | 
> 9 | > 9 | CCCN(CCC)C(=O)C1=Cc2sc(-c3cnn(S(=O)(=O)N4CC(CO)C4)c3)cc2N=C(N)C1 [TAZ-12, 5-amino-2-[1-[3-(hydroxymethyl)azetidin-1-yl]sulfonylpyrazol-4-yl]-N,N-dipropyl-6H-thieno[3,2-b]azepine-7-carboxamide] | 
